As usually defined, the melting point is the temperature, or range, at which the solid turns liquid. As a reminder, the Ki is a dissociation constant, usually derived from enzyme kinetics or from competition with a known ligand. Read a high Ki as lower affinity. In general, IC50 refers to the concentration that inhibits the measured activity by half.

Counter-ions that a name gives are not always drawn.

In one data set the target is T1, serotonin transporter (Rattus norvegicus, UniProt P31652).
T1 construct: displace ^3H-paroxetine from male rat frontal cortical membranes; from tissue; host or cells: male rat frontal cortex membranes
The data set is described as follows: 3H-paroxetine displacement, affinity for the serotonin transporter. The format is binding.

The target in a further data set is T2, human 5-HT1A receptors (Homo sapiens, UniProt P08908).
T2 construct: expressed in transfected cells; host or cells: CHO cells, stably transfected
T2 sequence (P08908 1-422): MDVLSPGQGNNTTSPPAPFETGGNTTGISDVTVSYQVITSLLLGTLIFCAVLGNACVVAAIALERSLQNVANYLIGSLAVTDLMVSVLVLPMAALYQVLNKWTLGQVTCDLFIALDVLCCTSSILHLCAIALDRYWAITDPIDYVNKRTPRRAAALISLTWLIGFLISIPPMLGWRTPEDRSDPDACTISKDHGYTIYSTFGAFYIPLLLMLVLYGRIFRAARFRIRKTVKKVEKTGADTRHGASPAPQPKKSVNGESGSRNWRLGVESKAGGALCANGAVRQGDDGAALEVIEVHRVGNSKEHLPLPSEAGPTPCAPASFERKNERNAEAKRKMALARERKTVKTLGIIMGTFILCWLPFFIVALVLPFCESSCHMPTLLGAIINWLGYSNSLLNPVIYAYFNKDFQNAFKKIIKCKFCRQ
The data set is described as follows: [3H] 8-OHDPAT displacement from the 5-HT1A receptor in transfected CHO cells. The data set is classed as binding. From the text: High affinity for the serotonin 5-HT1A receptor was established by testing the claimed compound's ability to displace [^3H] 8-OHDPAT (dipropylaminotetralin) from the 5-HT1A serotonin receptor following a modification of the procedure of Hall et al., J. Neurochem. 44, 1685 (1985) which utilizes CHO cells stably transfected with human 5-HT1A receptors.

Data set [1] has as its target T3, cloned human 5-HT1A receptors (Homo sapiens, UniProt P08908).
T3 construct: expressed in transfected cells
T3 sequence (P08908 1-422): T2 sequence (P08908 1-422)
The experiment in a line: 35S-GTPγS binding assay, antagonist activity at 5-HT1A receptors. The format is biochemical. As to conditions: reversal of the effects of the standard agonist 8-OHDPAT; for IC50: read-out: 5-HT1A Function IC50. How it is done: Antagonist activity at 5-HT1A receptors was established by using a ^35S-GTPγS binding assay similar to that used by Lazareno and Birdsall (Br. J. Pharmacol. 109: 1120, 1993), in which the test compound's ability to affect the binding of ^35S-GTPγS to membranes containing cloned human 5-HT1A receptors was determined. Agonists produce an increase in binding whereas antagonists produce no increase but rather reverse the effects of the standard agonist 8-OHDPAT. The test compound's maximum inhibitory effect is represented as the Imax, while its potency is defined by the IC50.
On the technique in general: GTPγS is a poorly hydrolysed GTP analogue; its binding reports G protein activation.

T1 sequence (P31652 whole entry): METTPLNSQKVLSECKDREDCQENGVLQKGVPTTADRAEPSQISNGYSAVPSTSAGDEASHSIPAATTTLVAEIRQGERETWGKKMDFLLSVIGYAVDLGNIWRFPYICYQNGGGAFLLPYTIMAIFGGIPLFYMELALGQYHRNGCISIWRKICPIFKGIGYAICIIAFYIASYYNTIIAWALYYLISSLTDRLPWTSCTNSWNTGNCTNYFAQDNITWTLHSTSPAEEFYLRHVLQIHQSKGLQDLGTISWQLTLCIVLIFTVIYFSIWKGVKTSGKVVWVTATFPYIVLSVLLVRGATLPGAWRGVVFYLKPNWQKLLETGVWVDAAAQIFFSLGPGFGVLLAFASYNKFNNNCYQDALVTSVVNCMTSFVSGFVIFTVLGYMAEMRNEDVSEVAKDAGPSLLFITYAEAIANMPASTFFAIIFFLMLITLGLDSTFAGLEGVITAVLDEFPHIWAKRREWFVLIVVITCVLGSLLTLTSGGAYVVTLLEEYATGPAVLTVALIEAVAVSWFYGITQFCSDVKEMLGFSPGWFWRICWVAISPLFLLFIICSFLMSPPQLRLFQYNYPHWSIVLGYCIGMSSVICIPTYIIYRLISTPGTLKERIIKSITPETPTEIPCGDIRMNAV

In the case of `Cc1nc2ccc3c(c2o1)OC(CN1CC=C(c2c[nH]c4c(F)cccc24)CC1)CO3` (stereo not shown), the melting point lay in the range of 208 to 210 °C.
Turning to `Cc1nc2ccc3c(c2o1)OC(CN1CC=C(c2c[nH]c4cc(F)ccc24)CC1)CO3` (stereo not shown), the melting point was 188 to 190 °C.
In turn, `Cc1nc2ccc3c(c2o1)OC(CN1CC=C(c2c[nH]c4ccc(C#N)cc24)CC1)CO3` (stereo not shown) (as salt: fumarate) (hydrate or solvate) [Example 4, 3-[1-(2-Methyl-7,8-dihydro-1,6,9-trioxa-3-aza-cyclopenta[a]naphthalen-8-ylmethyl)-1,2,3,6-tetrahydro-pyridin-4-yl]-1H-indole-5-carbonitrile] had a melting point of 119 °C.
The molecule `C1=C(c2c[nH]c3ccccc23)CCN(CC2COc3ccc4ncoc4c3O2)C1` (stereo not shown) [Example 1, 8-[4-(1H-Indol-3-yl)-3,6-dihydro-2H-pyridin-1-ylmethyl]-7,8-dihydro-1,6,9-trioxa-3-aza-cyclopenta[a]naphthalene] showed a melting point of 223 to 224 °C. The molecule also had a Ki at serotonin transporter of 4 nM. Further, the affinity on human 5-HT1A receptors, expressed as Ki, was 10.3 nM. In data set [1], the “5-HT1A Function Imax (maximum inhibitory effect)” value is recorded as 45 and the IC50 came out at 334 nM.
In turn, `Cc1nc2ccc3c(c2o1)OC(CN1CC=C(c2c[nH]c4ccc(F)cc24)CC1)CO3` (stereo not shown) [Example 2, 8-[4-(5-Fluoro-1H-indol-3-yl)-3,6-dihydro-2H-pyridin-1-ylmethyl]-2-methyl-7,8-dihydro-1,6,9-trioxa-3-aza-cyclopenta[a]naphthalene] gave a melting point of 95 °C. In addition, at serotonin transporter, the inhibition constant (Ki) turned out to be 2.25 nM. Besides, the Ki at human 5-HT1A receptors worked out at 5.43 nM. Also, in data set [1], the “5-HT1A Function Imax (maximum inhibitory effect)” value came out at 100 and the IC50 came out at 180 nM.
The like results for `Cc1nc2ccc3c(c2o1)OC(CN1CC=C(c2c[nH]c4ccccc24)CC1)CO3` (stereo not shown) [Example 3, 8-[4-(1H-Indol-3-yl)-3,6-dihydro-2H-pyridin-1-ylmethyl]-2-methyl-7,8-dihydro-1,6,9-trioxa-3-aza-cyclopenta[a]naphthalene] were, in that order, 196 °C, 3.83 nM, 7.56 nM, 100 and 282 nM.
`Cc1nc2ccc3c(c2o1)OC(CN1CC=C(c2c[nH]c4ccc(C#N)cc24)CC1)CO3` (stereo not shown) [Example 4, 3-[1-(2-Methyl-7,8-dihydro-1,6,9-trioxa-3-aza-cyclopenta[a]naphthalen-8-ylmethyl)-1,2,3,6-tetrahydro-pyridin-4-yl]-1H-indole-5-carbonitrile]: the Ki on serotonin transporter worked out at 1.68 nM. This molecule also came in with a Ki at human 5-HT1A receptors of 9.56 nM. In data set [1], the “5-HT1A Function Imax (maximum inhibitory effect)” value is listed as 100 and the IC50 turned out to be 115 nM.

Values taken from patent publication US6617334B2, “Antidepressant azaheterocyclylmethyl derivatives of 7,8-dihydro-1,6,9-trioxa-3-aza-cyclopenta[a]naphthalene” (Wyeth, priority 2001, dated 2003).
